In brackets after ≈: the same amount, converted by molar mass. Like-named read-outs stand apart in the source and are kept apart here. Non-standard residues stand in square brackets, D forms with d. Residues, ends and D or L forms follow the SMILES beside them. d1Nal = N[C@H](Cc1cccc2ccccc12)C(=O)O
Key:
Bacteroides fragilis = test: microbe, parasite or virus in culture; assay type: cell-based; conditions: Bacteroides fragilis 25285; read-out: Minimum Inhibitory Concentrations
Experimental: (§1) Acne vulgaris may involve a microbial consortium. Although P. acnes may be a prominent member of such a consortium, other uncharacterized bacteria may also participate. The microbial activity of XMP.629 as an acetate gel as described in Example 5 and other commonly used antibiotics was evaluated against a panel of human pathogens using standardized NCCLS protocols. […] Lesser potency was observed against the gram-negative organisms B. fragilis, B. cepacia, P. mirabilis and S. marcescens, which are often refractory to many antimicrobial compounds.

Escherichia coli = test: microbe, parasite or virus in culture; assay type: cell-based; conditions: Escherichia coli, read-out: Minimum Inhibitory Concentrations
Experimental: as §1

Klebsiella pneumoniae = test: microbe, parasite or virus in culture; assay type: cell-based; conditions: Klebsiella pneumoniae, read-out: Minimum Inhibitory Concentrations
Experimental: as §1

Proteus mirabilis = test: microbe, parasite or virus in culture; assay type: cell-based; conditions: Proteus mirabilis 29852; read-out: Minimum Inhibitory Concentrations
Experimental: as §1

Serratia marcescens = test: microbe, parasite or virus in culture; assay type: cell-based; conditions: Serratia marcescens 13880; read-out: Minimum Inhibitory Concentrations
Experimental: as §1

Staphylococcus aureus [1] = conditions: Staphylococcus aureus 342U-116
E. coli = E. coli 4104 LF
Pseudomonas aeruginosa = test: microbe, parasite or virus in culture
[2] = tested on: Actinobacillus actinomycetemcomitans; test: microbe, parasite or virus in culture; assay type: cell-based; conditions: Aggregatibacter actinomycetemcomitans; Actinobacillus actinomycetemcomitans 43718; read-out: Minimum Inhibitory Concentrations
Experimental: as §1

Burkholderia cepacia = test: microbe, parasite or virus in culture; assay type: cell-based; conditions: Burkholderia cepacia 25416; read-out: Minimum Inhibitory Concentrations
Experimental: as §1

Porphyromonas gingivalis = test: microbe, parasite or virus in culture; assay type: cell-based; conditions: Porphyromonas gingivalis 33277; read-out: Minimum Inhibitory Concentrations
Experimental: as §1

Prevotella intermedia = test: microbe, parasite or virus in culture; assay type: cell-based; conditions: Prevotella intermedia 25261; read-out: Minimum Inhibitory Concentrations
Experimental: as §1

Salmonella ryphimurium = test: microbe, parasite or virus in culture; assay type: cell-based; conditions: Salmonella ryphimurium SL770; read-out: Minimum Inhibitory Concentrations
Experimental: as §1

Streptococcus mutans = test: MIC, panel of human pathogens, standardized NCCLS protocols; assay type: cell-based; conditions: read-out: Minimum Inhibitory Concentrations
[3] = tested on: Enterococcus faccium (VRE); test: microbe, parasite or virus in culture; conditions: read-out: Minimum Inhibitory Concentrations
Enterococcus hirae = test: microbe, parasite or virus in culture; conditions: read-out: Minimum Inhibitory Concentrations
Macrococcus caseolyticus = test: microbe, parasite or virus in culture; conditions: Macrococcoides caseolyticum, read-out: Minimum Inhibitory Concentrations
Streptococcus pneumoniae = test: microbe, parasite or virus in culture; conditions: read-out: Minimum Inhibitory Concentrations
Streptococcus sobrinus = test: microbe, parasite or virus in culture; conditions: read-out: Minimum Inhibitory Concentrations
Corynebacterium = test: microbe, parasite or virus in culture; assay type: cell-based; conditions: read-out: MIC90 of Standard Topical Agents
Experimental: (§2) Control tubes containing only water or formulation buffer were prepared for each isolate. Initial growth controls were determined by removing 10 μL from the water control tube and diluting it by 100 fold. From this dilution, 10 μL was used for inoculation and for spreading over the surface onto Laked Blood Agar (LBA) (Anaerobe Systems, Morgan Hill, Calif.) plates. The tubes and plates were incubated in an anaerobic atmosphere at 37° C. for 48 h. […] MBC50 and 90 values represent where 50 and 90%, respectively, of the tested strain's MBC values are equal to or less than the indicated concentration.

S. aureus = test: Comparison of XMP.629 with standard topical agents (MIC90/MBC); assay type: cell-based, Staphylococcus aureus; conditions: Staphylococcus aureus
Experimental: as §2

P. acnes [4] = conditions: strains UPC686 and UP2022; with XMP.629
[5] = tested on: P. acnes strain (ATCC 6919); conditions: P. acnes ATCC 6919 passaged in the drug, level of the resistant culture sought/obtained
P. acnes [6] = test: microbe, parasite or virus in culture; conditions: Cutibacterium acnes, read-out: MIC90 of Standard Topical Agents
Experimental: An in vitro assessment of antibiotic activity in XMP.629 and various known antibiotics against a representative panel of bacterial strains associated with acne was conducted. A broth dilution methodology was employed using guidelines established by National Committee for Clinical Laboratory Standards (NCCLS) for anaerobic organisms to establish an antibacterial profile for XMP.629. Assays to determine the minimal bactericidal concentrations (MBC) and minimal inhibitory concentration (MIC) were conducted for XMP.629 and other known antibiotics.
Inoculum from a representative panel of bacterial strains associated with acne, such as P. acnes, P. avidum, P. granulosum, and Staphylococcus epidermis was prepared by suspending approximately 5-10 isolated bacterial colonies in pre-reduced MicroScan® Inoculum Water (Dade Behring, Deerfield, Ill.), and growing the bacterial suspension to log phase (approximately 48 hrs). An inoculum of between 1-5×10^6/mL was achieved by adding 100 μL of the suspension to 25 mL Brain Heart Infusion Broth (BHI) (Anaerobe Systems, Morgan Hill, Calif.).
A stock solution of XMP.629 dissolved in water at a concentration of 4.0 mg/mL was prepared. Dilute solutions of XMP.629 at concentrations ranging from about 1.25 to about 160 μg/mL were made in either water or formulation buffer (130 mM sodium chloride, 0.2% P103 (poloxamer 333), and 0.10% EDTA, pH 7.3).
Control tubes containing only water or formulation buffer were prepared for each isolate. Initial growth controls were determined by removing 10 μL from the water control tube and diluting it by 100 fold. From this dilution, 10 μL was used for inoculation and for spreading over the surface onto Laked Blood Agar (LBA) (Anaerobe Systems, Morgan Hill, Calif.) plates. The tubes and plates were incubated in an anaerobic atmosphere at 37° C. for 48 h.

P. acnes [7] = test: microbe, parasite or virus in culture; conditions: Cutibacterium acnes
[8] = tested on: P. acnes strain (ATCC 6919); test: microbe, parasite or virus in culture; conditions: Cutibacterium acnes, ATCC6919, read-out: MIC for matched, untreated, control organisms
Staphylococcus aureus [9] = test: microbe, parasite or virus in culture
Enterococcus = assay type: cell-based
Experimental: as §2

Clostridium difficile = test: microbe, parasite or virus in culture; conditions: Clostridioides difficile, read-out: Minimum Inhibitory Concentrations
Propionibacterium acnes = test: microbe, parasite or virus in culture; conditions: Cutibacterium acnes, read-out: Minimum Inhibitory Concentrations
[10] = 10 mg/kg oral gavage
in vivo = conditions: both, rat, plasma, po, 10 mg/kg, Bioavailability, 10 mg/kg oral gavage in distilled water
patients = conditions: clinical trials; cited from earlier work
skin of healthy subjects = test: 21-day cumulative skin irritation study in healthy subjects; conditions: occlusive patches
Experimental: Subjects include males and females, ranging in age from 18 to 70 years old. Subjects are of any skin and race type.
Patches are prepared approximately 5-60 minutes before application to the subject and are applied on the backs of subjects at designated sites. Patches are held in place with appropriate adhesion tapes for 48 hours. Gels are applied to the same site on a given subject according to the randomization code three times per week. Subjects are instructed to keep the patches dry and are asked to avoid exercise that results in excessive sweating. Additionally, subjects are instructed to not expose the applied sites to sunlight for the duration of the study.
Every application is observed 48 hours later for signs of irritation or inflammation by a clinician or investigator. The clinician or investigator evaluates sign of skin reaction on each site for approximately 5-15 minutes after the patch is removed. Skin irritancy is rated according to the following commonly used 6-point scale: • 0=No sign of irritation • 0.5=Barely perceptible erythema • 1=Slight erythema • 2=Noticeable erythema with slight infiltration • 3=Erythema with marked edema • 4=Erythema with edema and blistering
Other signs of skin reaction to the tested gels are noted as adverse events and are recorded. A total of nine readings are performed during the study. […]

[11] = read-out: Minimum Inhibitory Concentrations, Pseudomonas aeruginosa 27853
[12] = read-out: Minimum Inhibitory Concentrations, Pseudomonas aeruginosa XS-65 (MDR)
[13] = BAA38|MRSA, read-out: Minimum Inhibitory Concentrations, Staphylococcus aureus BAA-38 (MRSA)
[14] = read-out: Minimum Inhibitory Concentrations, Staphylococcus aureus 19636

Experimental for physchem: In additional studies, a variety of formulations of XMP.629 were tested for stability under various temperatures, such as 25° C., 40° C., and 50° C., and at various time points, such as 0.5, 1, and 2 months.
The solubility of XMP.629 acetate in various solvents was also evaluated.
Solubility studies were conducted using a variety of solvent systems and/or skin penetration enhancers.

CO/N=C(\C(=O)N[C@@H]1C(=O)N2C(C(=O)O)=C(CSc3nc(=O)c(=O)[nH]n3C)CS[C@H]12)c1csc(N)n1 [Ceftriaxone]
MIC (Bacteroides fragilis): 2.5 µg/mL (≈ 4.51 µM) | MIC (Escherichia coli; Escherichia coli 07:K1): ≤ 0.25 µg/mL | MIC (Escherichia coli; Escherichia coli 0111:B4): ≤ 0.063 µg/mL | MIC (Klebsiella pneumoniae; Klebsiella pneumoniae 19645): > 64 µg/mL | MIC (Klebsiella pneumoniae; Klebsiella pneumoniae 29011): 0.13 µg/mL (≈ 0.234 µM) | MIC (Proteus mirabilis): ≤ 0.063 µg/mL | MIC (Serratia marcescens): 0.25 µg/mL (≈ 0.451 µM) | MBC (antibiotic alone) (Staphylococcus aureus [1]): >4 µg/mL | MBC (antibiotic alone) (E. coli): ≦4 μg/mL | MIC (Pseudomonas aeruginosa; [11]): 8 µg/mL (≈ 14.4 µM) | MIC (Pseudomonas aeruginosa; [12]): 16 µg/mL (≈ 28.9 µM)

O=C(O)c1cn(C2CC2)c2cc(N3CCNCC3)c(F)cc2c1=O [Ciprofloxacin]
MIC [2]: ≤ 1 µg/mL | MIC (Burkholderia cepacia): 1 µg/mL (≈ 3.02 µM) | MIC (Escherichia coli; Escherichia coli 07:K1): ≤ 0.25 µg/mL | MIC (Escherichia coli; Escherichia coli 0111:B4): ≤ 0.063 µg/mL | MIC (Klebsiella pneumoniae; Klebsiella pneumoniae 19645): 0.13 µg/mL (≈ 0.392 µM) | MIC (Klebsiella pneumoniae; Klebsiella pneumoniae 29011): ≤ 0.063 µg/mL | MIC (Porphyromonas gingivalis): ≤ 1 µg/mL | MIC (Prevotella intermedia): ≤ 1 µg/mL | MIC (Proteus mirabilis): ≤ 0.063 µg/mL | MIC (Salmonella ryphimurium): ≤ 1 µg/mL | MIC (Serratia marcescens): 0.06 µg/mL (≈ 0.181 µM) | MIC (Streptococcus mutans; Streptococcus mutans 25175): 2 µg/mL (≈ 6.04 µM) | MIC (Pseudomonas aeruginosa; read-out: Minimum Inhibitory Concentrations, Pseudomonas aeruginosa 9027): 0.13 µg/mL (≈ 0.392 µM) | MIC (Pseudomonas aeruginosa; read-out: Minimum Inhibitory Concentrations, Pseudomonas aeruginosa 19660): 0.13 µg/mL (≈ 0.392 µM) | MIC (Pseudomonas aeruginosa; [11]): ≤ 1 µg/mL | MIC (Pseudomonas aeruginosa; [12]): ≤ 1 µg/mL | MIC [3]: 64 µg/mL (≈ 193 µM) | MIC (Enterococcus hirae): ≤ 1 µg/mL | MIC (Macrococcus caseolyticus): ≤ 1 µg/mL | MIC (Streptococcus pneumoniae): ≤ 1 µg/mL | MIC (Streptococcus sobrinus): 2 µg/mL (≈ 6.04 µM)

CC[C@H]1OC(=O)[C@H](C)[C@@H](O[C@H]2C[C@@](C)(OC)[C@@H](O)[C@H](C)O2)[C@H](C)[C@@H](O[C@@H]2O[C@H](C)C[C@H](N(C)C)[C@H]2O)[C@](C)(O)C[C@@H](C)C(=O)[C@H](C)[C@@H](O)[C@]1(C)O [Erythromycin]
MIC90 (Corynebacterium): 0.5 µg/mL (≈ 0.681 µM) | MIC90 (S. aureus): > 4 µg/mL | FIC (P. acnes [4]): 2 | MIC/MBC ([5]; listed as Erythromycin IR): 64 µg/mL (≈ 87.2 µM) | MIC/MBC ([5]; listed as Erythromycin R): >64 µg/mL | MIC90 (P. acnes [6]): > 256 µg/mL | MIC (P. acnes [7]; ATCC6919, ATCC 6919 converted to an intermediate-erythromycin strain): 64 µg/mL (≈ 87.2 µM) | MIC (P. acnes [7]; clindamycin/erythromycin sensitive strain UP2022): < 1 µg/mL | MIC [8]: 4 µg/mL (≈ 5.45 µM)

Cc1onc(-c2ccccc2)c1C(=O)N[C@@H]1C(=O)N2[C@@H]1SC(C)(C)[C@@H]2C(=O)O [Oxacillin]
MBC (antibiotic alone) (Staphylococcus aureus [1]): 1 µg/mL (≈ 2.49 µM) | MIC [3]: > 64 µg/mL | MIC (Staphylococcus aureus [9]; [13]): 8 µg/mL (≈ 19.9 µM) | MIC (Staphylococcus aureus [9]; [14]): 1 µg/mL (≈ 2.49 µM)

CN[C@H](CC(C)C)C(=O)N[C@H]1C(=O)N[C@@H](CC(N)=O)C(=O)N[C@H]2C(=O)N[C@H]3C(=O)N[C@H](C(=O)N[C@H](C(=O)O)c4cc(O)cc(O)c4-c4cc3ccc4O)[C@H](O)c3ccc(c(Cl)c3)Oc3cc2cc(c3O[C@@H]2O[C@H](CO)[C@@H](O)[C@H](O)[C@H]2O[C@H]2C[C@](C)(N)[C@H](O)[C@H](C)O2)Oc2ccc(cc2Cl)[C@H]1O [Vancomycin]
MIC90 (Corynebacterium): 0.5 µg/mL (≈ 0.345 µM) | MIC90 of Standard Topical Agents (Enterococcus): 1.0/NE | MIC90 (S. aureus): 4 µg/mL (≈ 2.76 µM) | MIC (Streptococcus mutans; Streptococcus mutans): 2 µg/mL (≈ 1.38 µM) | MIC90 (P. acnes [6]): 2 µg/mL (≈ 1.38 µM) | MIC (Clostridium difficile): 1 µg/mL (≈ 0.69 µM) | MIC [3]: > 64 µg/mL | MIC (Propionibacterium acnes): 2 µg/mL (≈ 1.38 µM) | MIC (Staphylococcus aureus [9]; [13]): 1 µg/mL (≈ 0.69 µM) | MIC (Staphylococcus aureus [9]; read-out: Minimum Inhibitory Concentrations, Staphylococcus aureus 6258): 2 µg/mL (≈ 1.38 µM) | MIC (Staphylococcus aureus [9]; read-out: Minimum Inhibitory Concentrations, Staphylococcus aureus 11371): 1 µg/mL (≈ 0.69 µM) | MIC (Staphylococcus aureus [9]; read-out: Minimum Inhibitory Concentrations, Staphylococcus aureus 12598): 1.25 µg/mL (≈ 0.863 µM) | MIC (Staphylococcus aureus [9]; [14]): ≤ 1 µg/mL | MIC (Streptococcus sobrinus): 1 µg/mL (≈ 0.69 µM)

CC(C)C[C@@H](NC(=O)[C@H](N)CCCCN)C(=O)N[C@H](Cc1ccccc1)C(=O)N[C@H](CCCNC(=N)N)C(=O)N[C@H](Cc1cccc2ccccc12)C(=O)N[C@H](CCC(N)=O)C(=O)N[C@H](C)C(=O)N[C@H](CCCCN)C(=O)N[C@H](Cc1cccc2ccccc12)C(N)=O [XMP.629 acetate] (H-[dK][dL][dF][dR][d1Nal][dQ][dA][dK][d1Nal]-NH2)
Bioavailability, 5% glucose formulation versus distilled water [10]: ~4 fold | peak concentrations, 5% glucose formulation versus distilled water [10]: ~4 fold | time of peak concentrations following dosing [10]: 10 to 20 min | bioavailability (in vivo): ~0.001% | solubility (physchem; ethanol, 200 proof): < 2200 µg/mL | solubility (physchem; propylene glycol): 10600 to 12500 µg/mL | solubility (physchem; purified water): < 1660 µg/mL | solubility (physchem; sodium acetate buffer, pH 6): > 1640 µg/mL | solubility (physchem; transcutol P): < 170 µg/mL

O=C(O)CCCCCCCC(=O)O [azelaic acid]
patients reporting pruritus (itching), burning, stinging, and tingling (patients): 1-5%

CCCCCCCCCCCCOS(=O)(=O)[O-].[Na+] [sodium lauryl sulfate]
cumulative irritation, conclusion (skin of healthy subjects): mild cumulative irritation | mean cumulative irritation score (skin of healthy subjects): 0.25

— US20050148495A1, “Methods and materials including for treating acne” (priority 2003, published 2005)
